Entries after “also recorded” stand apart in the source; their conditions may differ.
Assays:
r(GGGGCC)8 [1] = assay: Optical melting of r(GGGGCC)8 in the presence of small molecule; type: binding; conditions: for increase of Tm of r(GGGGCC)8 / stabilization of the RNA (r(GGGGCC)8 stability): 1 μM RNA, 3 μM compound; for increase of Tm of r(GGGGCC)8 / stabilization of the RNA (r(GGGGCC)8 stability) / ΔG / Tm: 100 mM NaCl; for ΔG: 37° C.; for ΔG / ΔH / ΔS / Tm: r(GGGGCC)8 1 uM + compound 3 μM; for ΔH / ΔS: 10 mM Tris HCl pH 7.4, 100 mM NaCl
C9ORF72 mRNA = assay: qRT-PCR of C9ORF72 mRNA in iNeurons; type: cell-based, human; conditions: 4 μM, 4 d; all variants and long form
Procedure: RNA was extracted using the Direct-Zol RNA kit combined with in-column DNase I digestion, as per the manufacturer's instructions (Zymo Research, Irvine, Calif., USA). RNA integrity was obtained using the Agilent 2100 Bioanalyzer (Agilent Technologies, Santa Clara, Calif., USA). cDNA was obtained after reverse transcription polymerase chain reactions (RT-PCR) using approximately 500 ng of RNA with random primers and the High Capacity cDNA Transcription Kit (Applied Biosystems, Foster City, Calif., USA) as per the manufacturer's instructions. […] Relative quantification of C9ORF72 variants was determined using the ΔΔCt method and normalized to GAPDH.

r(CGG)12 = assay: Biolayer interferometry (BLI) binding affinity, r(CGG)12
Procedure: (§1) The RNA (200 μL aliquots) was then added to a black 96-well plate (Greiner Bio-One). […] A sample with no compound was used as background. All experiments were performed at 30° C. with agitation set to 1000 rpm. The biotinylated RNA (ligand) was loaded onto the surface of streptavidin biosensors (SA) for 660 s. […] Biosensors were then washed in 1× Kinetics Buffer for 300 s followed by association of the compound (analyte) for 5000 s. Finally, dissociation of the ligand-analyte interaction was analyzed for 5000 s. The resulting curves were corrected by subtracting the response recorded on a sensor loaded with ligand (RNA) but incubated with no analyte (compound). Data analyses and curve fitting were completed using Octet Data Analysis, version 7.0. Experimental data were fitted using the 2:1 heterogeneous ligand (HL) curve fit. Global analysis of all data sets acquired for different analyte concentrations, assuming reversible binding, was completed using nonlinear least squares fitting. […] [formula] where [Analyte] is the concentration of compound, Req is the estimated response at equilibrium, kon is association constant, koff is dissociation constant.

[2] = system: r(CCCCGG)66-expressing cells; assay: RNA-FISH of cells expressing antisense repeats; type: cell-based
Procedure: Western blot analysis and RNA-FISH of cells expressing antisense repeats. To examine the effect of 1a on RAN translation and foci formation in cells expressing antisense ([NT]) repeats, we utilized a previously described ([NT])66 expression vector (Gendron et al., 2013). Transfection, treatment, Western blotting, and RNA-FISH using a [NT] probe from IDT, were conducted as described above for ([NT])66-expressing cells.

[3] = system: (GGGGCC)66-expressing cells; assay: Poly(GP) MSD immunoassay of cell lysates; type: cell-based; conditions: 24 h
Procedure: Western blot analysis of c9RAN proteins. HEK293 cells were cultured in Opti-Mem supplemented with 10% FBS and 1% penicillin/streptomycin. […] Twenty-four hours later, cell pellets were collected. […] Western blotting was performed as previously described (Gendron et al., 2013). […] After centrifugation at 16,000×g for 20 min at 4° C., the supernatant was collected and protein concentration determined by BCA assay. […] Anti-GAPDH (1:10,000, BioDesign) was used to ensure equal loading among wells. Membranes were washed three times for 10 min in TBST and incubated with donkey anti-rabbit or anti-mouse IgG conjugated to horseradish peroxidase (1:5000; […] Protein expression was visualized by enhanced chemiluminescence treatment and exposure to film. Immunoassay analysis of c9RAN proteins. As an alternative means to measure poly(GP) proteins, Meso Scale Discovery (MSD) electrochemiluminescence detection technology was utilized to establish sandwich immunoassays using polyclonal anti-GP as capture and detection antibodies. […] Poly(GP) proteins were also measured in lysates from cultured cells (10-35 μg of protein per well) prepare as described above, or from RIPA-soluble homogenates from frozen frontal cortical tissues (35 μg of protein per well). Brain homogenates were prepared as previously described (Almeida et al., 2013). In brief, tissue was lysed in cold RIPA buffer and sonicated on ice. Lysates were cleared by centrifugation at 100,000 g for 30 min at 4° C. The supernatant was collected and protein concentration was determined by BCA assay.

[4] = system: hairpin with a fully paired stem; assay: Biolayer interferometry (BLI) binding affinity, fully paired hairpin
Procedure: as §1

[5] = system: r(CGG)60-expressing cells; conditions: cited from earlier work
r(GGGGCC)8 [6] = assay: Biolayer interferometry (BLI) binding affinity, r(GGGGCC)8; conditions: BLI kinetic binding; no additional cation
Procedure: as §1

[7] = system: cells expressing (CGG)88 placed in the 5'UTR of GFP; assay: Western blot analysis of RAN translation in a FXTAS cell model; type: cell-based; conditions: COS7 cells, anti-GFP
Procedure: Western blot analysis of RAN translation in a FXTAS cell model. Studies were completed using a plasmid in which r(CGG)88 is embedded in the 5′ UTR of an open reading frame encoding GFP (Todd et al., 2013). Therefore, RAN products are fused to GFP and can be detected using an anti-GFP antibody (Todd et al., 2013). COS7 cells were grown as monolayers in 96-well plates in growth medium (1× DMEM, 10% FBS, and 1× GlutaMax (Invitrogen)). […] Compound 1a was added to the transfection cocktail, which was then applied to the cells. The transfection cocktail was replaced with growth medium containing 1a approximately 5 h post transfection, and the cells were incubated at 37° C. for 18 h. Cells were lysed in the plate using 100 μl/well of MPER Mammalian Protein Extraction Reagent (Pierce Biotechnology) containing 1 μl of Halt Protease Inhibitor cocktail (Thermo Scientific). Cellular proteins were separated by SDS-PAGE (10% polyacrylamide) and then transferred to a PVDF membrane by wet transfer method. Protein content was analyzed by Western blotting by using anti-GFP (Santa Cruz) or anti-β-actin (Sigma Aldrich) as primary antibodies and anti-IgG-horseradish peroxidase conjugate as the secondary antibody. Chemiluminescent signal was generated by SuperSignal West Pico Chemiluminescent substrate (Thermo Scientific), and the blot was imaged with X-ray film (Phenix Research).

[8] = system: (GGGGCC)66-expressing cells; assay: Western blot analysis of c9RAN proteins (RAN translation); type: cell-based; conditions: HEK293 cells; 100 μM, 24 h (for compound 3)
C9ORF72+ iNeurons [9] = assay: Poly(GP) and poly(PR) inclusions in iNeurons (immunocytochemistry); type: cell-based, human; conditions: 2 or 4 μM, four days
C9ORF72+ iNeurons [10] = assay: RNA-FISH of RNA foci in iNeurons; type: cell-based, human; conditions: three C9ORF72+ iNeuron lines; 2 μM, four days
Procedure: Qiagen) for 15 min at 37° C., or with DNase I (3 U/ml; Invitrogen) for 30 minutes at room temperature, prior to dehydration. Cells were incubated in hybridization buffer (10% dextran sulfate, 50% formamide, 50 mM sodium phosphate buffer (pH 7), 2×SSC) at 66° C. for 20-60 min. […] Cells were hybridized with probe in a sealed, light-protected chamber for 16 h-24 h at 66° C. The coverslips were subsequently washed with 0.1% Tween-20/2×SSC for 5 min followed by three 10 min stringency washes in 0.1×SSC at 66° C. The cells were stained with Hoechst (Invitrogen), rinsed with DEPC-treated water, dehydrated through 70% and 100% ethanol and air dried. Coverslips were mounted with Prolong Gold antifade reagent (Life Technologies). […] For each of 3 cell lines, 3 fields were randomly selected per condition. For each field, the number of foci-positive nuclei and the total number of nuclei were counted to determine the average percentage of foci-positive cells.

[11] = system: (GGGGCC)66-expressing cells; assay: RNA-FISH of nuclear foci; type: cell-based; conditions: compound treatment 24 h
Procedure: RNA fluorescence in situ hybridization (FISH) of ([NT]-expressing cells. […] Cells were hybridized with denatured Cy3-conjugated ([NT])4 probe (2 ng/μl) in hybridization buffer (50% formamide, 10% dextran sulfate, 0.1 mg/mL yeast tRNA, 2×SSC, 50 mM sodium phosphate) overnight at 37° C. Cells were then washed once with 40% formamide/1×SSC for 30 min at 37° C. and twice with DEPC-PBS at room temperature for 5 min, followed by counterstaining with Hoechst 33258 (1 μg/ml, Invitrogen). Immunostained cells were visualized using a Zeiss Axiovert Fluorescence Microscope with apotome module. […] To quantify foci-bearing cells, coverslips mounted on slides were scanned by Aperio ScanScope. Ten fields were randomly selected under 20× magnification. For each field, the number of foci-positive nuclei and the total number of nuclei were counted using MetaMorph software. These counts were used to determine the average percentage of foci-positive cells for each condition.

[12] = system: r(CCCCGG)66-expressing cells; assay: RAN translation in cells expressing antisense repeats (immunoassay); type: cell-based; conditions: 100 μM, 24 h
Procedure: Immunoassay analysis of c9RAN proteins. As an alternative means to measure poly(GP) proteins, Meso Scale Discovery (MSD) electrochemiluminescence detection technology was utilized to establish sandwich immunoassays using polyclonal anti-GP as capture and detection antibodies. […] Poly(GP) proteins were also measured in lysates from cultured cells (10-35 μg of protein per well) prepare as described above, or from RIPA-soluble homogenates from frozen frontal cortical tissues (35 μg of protein per well). Brain homogenates were prepared as previously described (Almeida et al., 2013). In brief, tissue was lysed in cold RIPA buffer and sonicated on ice. Lysates were cleared by centrifugation at 100,000 g for 30 min at 4° C. The supernatant was collected and protein concentration was determined by BCA assay. […] A second MSD sandwich immunoassay was developed for the detection of poly(PR) proteins using polyclonal anti-PR as capture and detection antibodies. To validate specificity of the poly(PR) assay, lysates from cells transfected to express each possible protein RAN translated from the sense or antisense transcripts of the expanded C9ORF72 repeat [GFP-(GA)5, GFP-(GR)5, GFP-(GP)5, GFP-(PA)5, GFP-(PR)5] were assayed, as were lysates from cells expressing ([…]. 2F). Western blot analysis and RNA-FISH of cells expressing antisense repeats. […]

r(GGGGCC)66 = assay: Identification of cellular RNA targets by 1a-CA-biotin pull-down and qRT-PCR (competitive profiling); type: cell-based; conditions: co-treatment with 1a-CA-biotin and compound
r(GGGGCC)8 [13] = conditions: cited from earlier work

Cc1c2cc[n+](CCN3CCCCC3)cc2c(C)c2c1[nH]c1ccc(O)cc12 [Compound 1a]
increase of Tm of r(GGGGCC)8 (r(GGGGCC)8 [1]): 3.1 °C | stabilization of the RNA (r(GGGGCC)8 stability) (r(GGGGCC)8 [1]): 0.95 kcal/mol | ΔG (r(GGGGCC)8 [1]): -9.93 ± 0.15 kcal/mol | ΔH (r(GGGGCC)8 [1]): -74.4 ± 1.0 kcal/mol | ΔS (r(GGGGCC)8 [1]): -208 ± 3 cal/K · mol | Tm (r(GGGGCC)8 [1]): 84.7 ± 0.2 °C | C9ORF72 mRNA levels (C9ORF72 mRNA): no effect | Kd for r(CGG)12 compared with r(GGGGCC)8 (r(CGG)12): similar | percentage of cells bearing r(CCCCGG) foci [2]: no change | decrease in poly(GP) protein ([3]; 25 μM): 10% | decrease in poly(GP) protein ([3]; 50 μM): 18% | decrease in poly(GP) protein ([3]; 100 μM): 47% | binding to a hairpin with a fully paired stem compared with r(GGGGCC)8 [4]: bind more weakly | nuclear foci in r(CGG)60-expressing cells [5]: does reduce nuclear foci | Kd (r(GGGGCC)8 [6]): 9.7 µM | RAN translation in cells expressing (CGG)88 [7]: inhibits RAN translation | downstream canonical translation (GFP) [7]: does not affect | poly(GA) protein production (RAN translation) [8]: significantly decreased | synthesis of poly(GP) proteins (RAN translation) [8]: significantly decreased | poly(PR) expression (inclusions), synthesized from the antisense transcript (C9ORF72+ iNeurons [9]): no change | percentage of cells with poly(GP) inclusions (RAN translation of poly(GP)) (C9ORF72+ iNeurons [9]; listed as la): significantly decreased; also recorded: dose-dependent decrease | percentage of cells with RNA foci (C9ORF72+ iNeurons [10]): significantly decreased | percentage of foci-positive cells [11]: significantly decreased | poly(GP) proteins RAN translated from antisense transcripts [12]: no effect | poly(PR) proteins RAN translated from antisense transcripts [12]: no effect | amount of r(GGGGCC)66 that forms an adduct with 1a-CA-biotin in the presence of compound (r(GGGGCC)66): significantly depleted

CCN(CC)CCNC(=O)c1cc2cc(NC(=O)c3cc4cc(N)ccc4[nH]3)ccc2[nH]1 [Compound 3]
increase of Tm of r(GGGGCC)8 (r(GGGGCC)8 [1]): did not significantly affect | stabilization of the RNA (r(GGGGCC)8 stability) (r(GGGGCC)8 [1]): did not significantly affect | ΔG (r(GGGGCC)8 [1]): -9.10 ± 0.24 kcal/mol | ΔH (r(GGGGCC)8 [1]): -71.1 ± 1.5 kcal/mol | ΔS (r(GGGGCC)8 [1]): -200 ± 4 cal/K · mol | Tm (r(GGGGCC)8 [1]): 82.2 ± 0.2 °C | Kd for r(CGG)12 compared with r(GGGGCC)8 (r(CGG)12): similar | binding to a hairpin with a fully paired stem compared with r(GGGGCC)8 [4]: bind more weakly | Kd (r(GGGGCC)8 [6]): 16 µM | poly(GA) protein production (RAN translation) [8]: did not influence | synthesis of poly(GP) proteins (RAN translation) [8]: modestly inhibited | percentage of foci-positive cells [11]: not | amount of r(GGGGCC)66 that forms an adduct with 1a-CA-biotin in the presence of compound (r(GGGGCC)66): significantly depleted

C[n+]1ccc(-c2c3nc(c(-c4cc[n+](C)cc4)c4ccc([nH]4)c(-c4cc[n+](C)cc4)c4ccc([nH]4)c(-c4cc[n+](C)cc4)c4nc2C=C4)C=C3)cc1 [TMPyP4]
binding to r(GGGGCC)8 in vitro (r(GGGGCC)8 [13]): binds

Reference: US10465196B2, “Treatment of C9FTD/ALS by targeting RNA expanded repeat sequences” (THE SCRIPPS RESEARCH INSTITUTE, priority 2014, dated 2019)
